From the NIST ThermoML archive (doi:10.1021/je100765j)

Test: xn = mol fraction of the nth substance listed
Conditions: 101 kPa, Liquid; for speed of sound: Sing-around technique in a fixed-path interferometer

CC(C)CCl [1-chloro-2-methylpropane] + CC(C)OC(C)C
Conditions | mass density [kg/m3] | speed of sound [m/s]
283.15 K, x1 = 0.0549 | 740.509 | 1069.1
283.15 K, x1 = 0.091 | 745.071 | 1071.7
283.15 K, x1 = 0.1977 | 758.96 | 1079.6
283.15 K, x1 = 0.2934 | 772.077 | 1087
283.15 K, x1 = 0.3911 | 785.941 | 1094.4
283.15 K, x1 = 0.5137 | 804.21 | 1103.7
283.15 K, x1 = 0.6034 | 818.258 | 1110.5
283.15 K, x1 = 0.6769 | 830.206 | 1116.2
283.15 K, x1 = 0.8059 | 852.473 | 1126.3
283.15 K, x1 = 0.9111 | 871.773 | 1134.7
283.15 K, x1 = 0.9646 | 881.981 | 1139
288.15 K, x1 = 0.0549 | 735.346 | 1046.8
288.15 K, x1 = 0.091 | 739.888 | 1049.4
288.15 K, x1 = 0.1977 | 753.737 | 1057.5
288.15 K, x1 = 0.2934 | 766.807 | 1064.8
288.15 K, x1 = 0.3911 | 780.617 | 1072.3
288.15 K, x1 = 0.5137 | 798.831 | 1081.8
288.15 K, x1 = 0.6034 | 812.821 | 1088.7
288.15 K, x1 = 0.6769 | 824.734 | 1094.5
288.15 K, x1 = 0.8059 | 846.936 | 1104.9
288.15 K, x1 = 0.9111 | 866.179 | 1113.5
288.15 K, x1 = 0.9646 | 876.368 | 1117.9
293.15 K, x1 = 0.0549 | 730.142 | 1024.4
293.15 K, x1 = 0.091 | 734.678 | 1027
293.15 K, x1 = 0.1977 | 748.467 | 1035.1
293.15 K, x1 = 0.2934 | 761.481 | 1042.6
293.15 K, x1 = 0.3911 | 775.245 | 1050.3
293.15 K, x1 = 0.5137 | 793.406 | 1059.9
293.15 K, x1 = 0.6034 | 807.35 | 1066.9
293.15 K, x1 = 0.6769 | 819.228 | 1072.8
293.15 K, x1 = 0.8059 | 841.356 | 1083.4
293.15 K, x1 = 0.9111 | 860.549 | 1092.2
293.15 K, x1 = 0.9646 | 870.717 | 1096.8
298.15 K, x1 = 0.0549 | 724.887 | 1002.1
298.15 K, x1 = 0.091 | 729.395 | 1004.7
298.15 K, x1 = 0.1977 | 743.114 | 1013
298.15 K, x1 = 0.2934 | 756.06 | 1020.5
298.15 K, x1 = 0.3911 | 769.763 | 1028.2
298.15 K, x1 = 0.5137 | 787.825 | 1038
298.15 K, x1 = 0.6034 | 801.699 | 1045.2
298.15 K, x1 = 0.6769 | 813.519 | 1051.2
298.15 K, x1 = 0.8059 | 835.53 | 1062
298.15 K, x1 = 0.9111 | 854.603 | 1071
298.15 K, x1 = 0.9646 | 864.749 | 1075.6
303.15 K, x1 = 0.0549 | 719.603 | 979.86
303.15 K, x1 = 0.091 | 724.11 | 982.53
303.15 K, x1 = 0.1977 | 737.798 | 990.87
303.15 K, x1 = 0.2934 | 750.738 | 998.49
303.15 K, x1 = 0.3911 | 764.421 | 1006.3
303.15 K, x1 = 0.5137 | 782.446 | 1016.2
303.15 K, x1 = 0.6034 | 796.305 | 1023.5
303.15 K, x1 = 0.6769 | 808.11 | 1029.7
303.15 K, x1 = 0.8059 | 830.111 | 1040.8
303.15 K, x1 = 0.9111 | 849.196 | 1050
303.15 K, x1 = 0.9646 | 859.307 | 1054.8
308.15 K, x1 = 0.0549 | 714.28 | 957.82
308.15 K, x1 = 0.091 | 718.759 | 960.52
308.15 K, x1 = 0.1977 | 732.397 | 968.88
308.15 K, x1 = 0.2934 | 745.3 | 976.54
308.15 K, x1 = 0.3911 | 758.935 | 984.48
308.15 K, x1 = 0.5137 | 776.901 | 994.58
308.15 K, x1 = 0.6034 | 790.719 | 1002
308.15 K, x1 = 0.6769 | 802.492 | 1008.2
308.15 K, x1 = 0.8059 | 824.422 | 1019.6
308.15 K, x1 = 0.9111 | 843.468 | 1029
308.15 K, x1 = 0.9646 | 853.542 | 1033.8
313.15 K, x1 = 0.0549 | 708.887 | 935.95
313.15 K, x1 = 0.091 | 713.334 | 938.67
313.15 K, x1 = 0.1977 | 726.882 | 947.16
313.15 K, x1 = 0.2934 | 739.693 | 954.94
313.15 K, x1 = 0.3911 | 753.227 | 963
313.15 K, x1 = 0.5137 | 771.077 | 973.17
313.15 K, x1 = 0.6034 | 784.802 | 980.73
313.15 K, x1 = 0.6769 | 796.487 | 987.04
313.15 K, x1 = 0.8059 | 818.264 | 998.57
313.15 K, x1 = 0.9111 | 837.168 | 1008.1
313.15 K, x1 = 0.9646 | 847.176 | 1013
